Assay results as given in paper PMC11728000, “Antitumor Activity and Multi-Target Mechanism of Phenolic Schiff Bases Bearing Methanesulfonamide Fragments: Cell Cycle Analysis and a Molecular Modeling Study” (International Journal of Molecular Sciences, 2024).
Like-named read-outs stand apart in the source and are kept apart here.

Tests used:
[1] = tested on: HCT-15; parameters: method as in https://dtp.cancer.gov/dtpstandard/dwindex/index.jsp; conditions: ref https://dtp.cancer.gov/dtpstandard/dwindex/index.jsp; cited from earlier work
[2] = tested on: Renal Cancer subpanel tumor cell lines; conditions: cited from earlier work; for GI50: read-out: GI50, subpanel average, ref https://dtp.cancer.gov/dtpstandard/dwindex/index.jsp; for CC50: read-out: LC50, subpanel average, ref https://dtp.cancer.gov/dtpstandard/dwindex/index.jsp; for TGI, subpanel average: ref https://dtp.cancer.gov/dtpstandard/dwindex/index.jsp
[3] = tested on: Leukemia subpanel tumor cell lines; conditions: cited from earlier work; for GI50: read-out: GI50, subpanel average, ref https://dtp.cancer.gov/dtpstandard/dwindex/index.jsp; for CC50: read-out: LC50, subpanel average, ref https://dtp.cancer.gov/dtpstandard/dwindex/index.jsp; for TGI, subpanel average: ref https://dtp.cancer.gov/dtpstandard/dwindex/index.jsp
[4] = tested on: COLO 205; parameters: method as in https://dtp.cancer.gov/dtpstandard/dwindex/index.jsp; conditions: ref https://dtp.cancer.gov/dtpstandard/dwindex/index.jsp; cited from earlier work
[5] = tested on: HCC-2998; parameters: method as in https://dtp.cancer.gov/dtpstandard/dwindex/index.jsp; conditions: ref https://dtp.cancer.gov/dtpstandard/dwindex/index.jsp; cited from earlier work
[6] = tested on: MCF-7; parameters: method as in https://dtp.cancer.gov/dtpstandard/dwindex/index.jsp; conditions: ref https://dtp.cancer.gov/dtpstandard/dwindex/index.jsp; cited from earlier work
[7] = tested on: SNB-75; parameters: method as in https://dtp.cancer.gov/dtpstandard/dwindex/index.jsp; conditions: ref https://dtp.cancer.gov/dtpstandard/dwindex/index.jsp; cited from earlier work
[8] = tested on: HT29; parameters: method as in https://dtp.cancer.gov/dtpstandard/dwindex/index.jsp; conditions: ref https://dtp.cancer.gov/dtpstandard/dwindex/index.jsp; cited from earlier work
[9] = tested on: NCI/ADR-RES; parameters: method as in https://dtp.cancer.gov/dtpstandard/dwindex/index.jsp; conditions: ref https://dtp.cancer.gov/dtpstandard/dwindex/index.jsp; cited from earlier work
[10] = tested on: ACHN; parameters: method as in https://dtp.cancer.gov/dtpstandard/dwindex/index.jsp; conditions: ref https://dtp.cancer.gov/dtpstandard/dwindex/index.jsp; cited from earlier work
[11] = tested on: SF-295; parameters: method as in https://dtp.cancer.gov/dtpstandard/dwindex/index.jsp; conditions: ref https://dtp.cancer.gov/dtpstandard/dwindex/index.jsp; cited from earlier work
[12] = tested on: NCI-H460; parameters: method as in https://dtp.cancer.gov/dtpstandard/dwindex/index.jsp; conditions: ref https://dtp.cancer.gov/dtpstandard/dwindex/index.jsp; cited from earlier work
[13] = tested on: U251; parameters: method as in https://dtp.cancer.gov/dtpstandard/dwindex/index.jsp; conditions: ref https://dtp.cancer.gov/dtpstandard/dwindex/index.jsp; cited from earlier work
[14] = tested on: Ovarian Cancer subpanel tumor cell lines; conditions: cited from earlier work; for GI50: read-out: GI50, subpanel average, ref https://dtp.cancer.gov/dtpstandard/dwindex/index.jsp; for CC50: read-out: LC50, subpanel average, ref https://dtp.cancer.gov/dtpstandard/dwindex/index.jsp; for TGI, subpanel average: ref https://dtp.cancer.gov/dtpstandard/dwindex/index.jsp
[15] = tested on: RXF 393; parameters: method as in https://dtp.cancer.gov/dtpstandard/dwindex/index.jsp; conditions: ref https://dtp.cancer.gov/dtpstandard/dwindex/index.jsp; cited from earlier work
[16] = tested on: PC-3; parameters: method as in https://dtp.cancer.gov/dtpstandard/dwindex/index.jsp; conditions: ref https://dtp.cancer.gov/dtpstandard/dwindex/index.jsp; cited from earlier work
[17] = tested on: OVCAR-8; parameters: method as in https://dtp.cancer.gov/dtpstandard/dwindex/index.jsp; conditions: ref https://dtp.cancer.gov/dtpstandard/dwindex/index.jsp; cited from earlier work
[18] = tested on: SK-MEL-2; parameters: method as in https://dtp.cancer.gov/dtpstandard/dwindex/index.jsp; conditions: ref https://dtp.cancer.gov/dtpstandard/dwindex/index.jsp; cited from earlier work
[19] = tested on: SK-MEL-28; parameters: method as in https://dtp.cancer.gov/dtpstandard/dwindex/index.jsp; conditions: ref https://dtp.cancer.gov/dtpstandard/dwindex/index.jsp; cited from earlier work
[20] = tested on: HS 578T; parameters: method as in https://dtp.cancer.gov/dtpstandard/dwindex/index.jsp; conditions: ref https://dtp.cancer.gov/dtpstandard/dwindex/index.jsp; cited from earlier work
[21] = tested on: LOX IMVI; parameters: method as in https://dtp.cancer.gov/dtpstandard/dwindex/index.jsp; conditions: ref https://dtp.cancer.gov/dtpstandard/dwindex/index.jsp; cited from earlier work
[22] = tested on: OVCAR-5; parameters: method as in https://dtp.cancer.gov/dtpstandard/dwindex/index.jsp; conditions: ref https://dtp.cancer.gov/dtpstandard/dwindex/index.jsp; cited from earlier work
[23] = tested on: BT-549; parameters: method as in https://dtp.cancer.gov/dtpstandard/dwindex/index.jsp; conditions: ref https://dtp.cancer.gov/dtpstandard/dwindex/index.jsp; cited from earlier work
[24] = tested on: M14; parameters: method as in https://dtp.cancer.gov/dtpstandard/dwindex/index.jsp; conditions: ref https://dtp.cancer.gov/dtpstandard/dwindex/index.jsp; cited from earlier work
[25] = tested on: SR; parameters: method as in https://dtp.cancer.gov/dtpstandard/dwindex/index.jsp; conditions: ref https://dtp.cancer.gov/dtpstandard/dwindex/index.jsp; cited from earlier work
[26] = tested on: SW-620; assay: NCI anticancer screening (SRB), Colon Cancer subpanel; format: cell-based, human; conditions: for GI%: 10.0 µM in one dose
[27] = tested on: SK-OV-3; assay: NCI anticancer screening (SRB), Ovarian Cancer subpanel; format: cell-based, human; conditions: for GI%: 10.0 µM in one dose
[28] = tested on: HOP-92; assay: NCI anticancer screening (SRB), Non-Small Cell Lung Cancer subpanel; format: cell-based, human; conditions: for GI%: 10.0 µM in one dose
[29] = tested on: caspase-8; assay: Apoptotic markers assay, caspase-8 level in MCF-7 cells; format: cell-based, human; conditions: MCF-7 cells treated at IC50 concentrations; vs untreated control = 1
Experimental: We measured the apoptosis promoter Bax levels, the apoptosis inhibitor Bcl−2, and the apoptosis coordination enzymes caspase-8 and caspase-9 [32].
The apoptotic marker method was carried out using the reported procedure using MCF-7, the cancer cell line (Supplementary Materials). […]
7. Caspase-8 and 9 activation assay
A breast carcinoma (MCF-7) cell line was obtained from ATCC. […]
allowed cells to grow at 37 °C, stimulated with the compounds to be tested for caspase-8 or caspase-9 and lysed with Cell Extraction Buffer. Standard Diluent Buffer was used to dilute the lysate over the range of the assay and measure human active caspase-8 or caspase-9 content. (cells are Plated in a density of 1.2-1.8 X 10,000 cells/well in a volume of 100 µL complete growth medium + 100 µL of the tested compound per well in a 96-well plate for 24/48 h before the enzyme assay).
8. Evaluation of Bax and Bcl-2 expressions m RNA isolation was carried out using an RNeasy extraction kit, up to 1 X 107 cells. They were disrupted in Buffer RLT and homogenized. Ethanol was added to the lysate to promote the selective binding of RNA to the RNeasy membrane. Then, the sample was applied to the RNeasy

[30] = tested on: MALME-3M; assay: NCI anticancer screening (SRB), Melanoma subpanel; format: cell-based, human; conditions: for GI%: 10.0 µM in one dose
[31] = tested on: U251; assay: NCI anticancer screening (SRB), CNS Cancer subpanel; format: cell-based, human; conditions: for GI%: 10.0 µM in one dose
[32] = tested on: HCT-15; assay: NCI anticancer screening (SRB), Colon Cancer subpanel; format: cell-based, human; conditions: for GI%: 10.0 µM in one dose
[33] = tested on: HCC-2998; assay: as above; format: cell-based, human; conditions: for GI%: 10.0 µM in one dose
[34] = tested on: NCI-H226; parameters: method as in https://dtp.cancer.gov/dtpstandard/dwindex/index.jsp; conditions: ref https://dtp.cancer.gov/dtpstandard/dwindex/index.jsp; cited from earlier work
[35] = Homo sapiens, five concentrations

Cc1ccc(-c2cc(C(F)(F)F)nn2-c2ccc(S(N)(=O)=O)cc2)cc1 [Celecoxib, celecoxib]
GI50 [1]: 15.8 µM
GI50 [2]: 19.9 µM
CC50 [2]: 61.2 µM
TGI, subpanel average [2]: 41.19 µM
GI50 [3]: 12.3 µM
CC50 [3]: 67.1 µM
TGI, subpanel average [3]: 29.27 µM
GI50 [4]: 15.8 µM
GI50 [5]: 15.8 µM
GI50 [6]: 15.8 µM
GI50 [7]: 15.8 µM
GI50 [8]: 15.8 µM
GI50 [9]: 15.8 µM
GI50 [10]: 15.8 µM
GI50 [11]: 15.8 µM
GI50 [12]: 15.8 µM
GI50 [13]: 15.8 µM
GI50 [14]: 17.1 µM
CC50 [14]: 65.9 µM
TGI, subpanel average [14]: 34.20 µM
GI50 [15]: 15.8 µM
GI50 [16]: 12.6 µM
GI50 [17]: 19.9 µM
GI50 [18]: 15.8 µM
GI50 [19]: 15.8 µM
GI50 [20]: 19.9 µM
GI50 [21]: 19.9 µM
GI50 [22]: 19.9 µM
GI50 [23]: 19.9 µM
GI50 [24]: 63.1 µM
GI50 [25]: 15.8 µM

CS(=O)(=O)Nc1ccc(C(=O)NN=Cc2ccccc2O)cc1 [Compound 7]
GI% [26]: 35%
GI% [27]: 42%
GI% [28]: 44%
Casp8, Gene Expression (Fold Change) [29]: 5.171 fold change
GI% [30]: 24%
GI% [31]: 56%
GI% [32]: 67%
GI% [33]: 41%

CCN(CC)c1ccc(C=NNC(=O)c2ccc(NS(C)(=O)=O)cc2)c(O)c1 [Compound 8]
GI% [26]: 63%
GI50 [26, 35]: 0.471 µM
GI% [27]: 66%
GI50 [27, 35]: 0.45 µM
GI% [28]: 61%
GI50 [28, 35]: 0.443 µM
Casp8, Gene Expression (Fold Change) [29]: 6.456 fold change
GI% [30]: 96%
GI50 [30, 35]: 0.855 µM
GI% [31]: 76%
GI50 ([31]; Homo sapiens, U-251, five concentrations): 0.226 µM
GI% [32]: 80%
GI50 [32, 35]: 0.358 µM
GI% [33]: 62%
GI50 [33, 35]: 0.356 µM

C#Cc1cccc(Nc2ncnc3cc(OCCOC)c(OCCOC)cc23)c1 [Erlotinib, erlotinib]
GI50 [1]: 3.98 µM
GI50 [2]: 2.46 µM
CC50 [2]: 89.2 µM
TGI, subpanel average [2]: 42.59 µM
GI50 [3]: 27.9 µM
CC50 [3]: > 100 µM
TGI, subpanel average [3]: 96.57 µM
GI50 [4]: 50.1 µM
GI50 [5]: 79.4 µM
GI50 [6]: 100 µM
GI50 [7]: 12.6 µM
GI50 [8]: 63.1 µM
GI50 [9]: 7.94 µM
GI50 [10]: 0.199 µM
GI50 [11]: 15.8 µM
GI50 [12]: 6.31 µM
GI50 [13]: 25.1 µM
GI50 [34]: 39.8 µM
GI50 [14]: 5.52 µM
CC50 [14]: 97.1 µM
TGI, subpanel average [14]: 74.41 µM
GI50 [15]: 3.98 µM
GI50 [16]: 39.8 µM
GI50 [17]: 7.94 µM
GI50 [18]: 6.31 µM
GI50 [19]: 50.1 µM
GI50 [20]: 6.31 µM
GI50 [21]: 6.31 µM
GI50 [22]: 7.94 µM
GI50 [23]: 31.6 µM
GI50 [24]: 6.31 µM
GI50 [25]: 10 µM

COc1cc2ncnc(Nc3ccc(F)c(Cl)c3)c2cc1OCCCN1CCOCC1 [Gefitinib, gefitinib]
GI50 [1]: 3.98 µM
GI50 [2]: 1.41 µM
TGI, subpanel average [2]: 12.50 µM
GI50 [3]: 2.56 µM
TGI, subpanel average [3]: 12.07 µM
GI50 [4]: 7.94 µM
GI50 [5]: 2.51 µM
GI50 [8]: 3.98 µM
GI50 [9]: 1.26 µM
GI50 [10]: 0.158 µM
GI50 [11]: 10 µM
GI50 [12]: 3.16 µM
GI50 [13]: 3.16 µM
GI50 [34]: 3.98 µM
GI50 [14]: 3.05 µM
TGI, subpanel average [14]: 33.29 µM
GI50 [15]: 3.16 µM
GI50 [18]: 10 µM
GI50 [19]: 3.16 µM
GI50 [20]: 7.94 µM
GI50 [21]: 3.16 µM
GI50 [22]: 3.98 µM
GI50 [23]: 3.16 µM
GI50 [24]: 2 µM
GI50 [25]: 3.16 µM

CNC(=O)c1cc(Oc2ccc(NC(=O)Nc3ccc(Cl)c(C(F)(F)F)c3)cc2)ccn1 [Sorafenib, sorafenib]
GI50 [1]: 2.51 µM
GI50 [2]: 2.86 µM
CC50 [2]: 54.8 µM
TGI, subpanel average [2]: 10.86 µM
GI50 [3]: 1.91 µM
CC50 [3]: > 100 µM
TGI, subpanel average [3]: 42.12 µM
GI50 [4]: 1.99 µM
GI50 [5]: 3.16 µM
GI50 [6]: 2.51 µM
GI50 [7]: 3.16 µM
GI50 [8]: 1.99 µM
GI50 [9]: 2.51 µM
GI50 [10]: 2.51 µM
GI50 [12]: 2.51 µM
GI50 [13]: 1.99 µM
GI50 [34]: 1.99 µM
GI50 [14]: 2.89 µM
CC50 [14]: 71.3 µM
TGI, subpanel average [14]: 14.43 µM
GI50 [15]: 2.51 µM
GI50 [16]: 1.99 µM
GI50 [17]: 3.16 µM
GI50 [18]: 1.99 µM
GI50 [19]: 2.51 µM
GI50 [22]: 3.16 µM
GI50 [23]: 3.16 µM
GI50 [24]: 1.99 µM
GI50 [25]: 3.16 µM
